Columns and labels:
Morganella morganii = test: Antibacterial activity against beta-lactamase producing Morganella morganii ATCC 25830 after 18 hrs by agar dilution method; assay type: functional; conditions: ATCC 25830, 18 h
Proteus vulgaris = test: Antibacterial activity against beta-lactamase producing Proteus vulgaris ATCC 29905 after 18 hrs by agar dilution method; assay type: functional; conditions: ATCC 29905, 18 h
[1] = test system: Acinetobacter calcoaceticus; test: Antibacterial activity against beta-lactamase producing Acinetobacter calcoaceticus ATCC 19606 after 18 hrs by agar dilution method; assay type: functional; conditions: ATCC 19606, 18 h
HepG2 = test: Cytotoxicity against human HepG2 cells assessed as growth inhibition after 48 hrs by sulforhodamine B assay; assay type: functional, cell-based; conditions: HepG2, 48 h
MCF7 = test: Cytotoxicity against human MCF7 cells assessed as growth inhibition after 48 hrs by sulforhodamine B assay; assay type: functional, cell-based; conditions: MCF7, 48 h
K562 = test: Cytotoxicity against human K562 cells assessed as growth inhibition after 48 hrs by sulforhodamine B assay; assay type: functional, cell-based; conditions: K562, 48 h
Staphylococcus aureus [2] = test: Antibacterial activity against methicillin-susceptible Staphylococcus aureus ATCC 29213 after 18 hrs by agar dilution method; assay type: functional; conditions: ATCC 29213, 18 h
Staphylococcus aureus [3] = test: Antibacterial activity against methicillin-susceptible Staphylococcus aureus 15 after 18 hrs by agar dilution method; assay type: functional; conditions: Staphylococcus aureus, 15, 18 h
Staphylococcus aureus [4] = test: Antibacterial activity against methicillin-resistant Staphylococcus aureus ATCC 33591 after 18 hrs by agar dilution method; assay type: functional; conditions: ATCC 33591, 18 h
Staphylococcus aureus [5] = test: Antibacterial activity against methicillin-resistant Staphylococcus aureus 12-28 after 18 hrs by agar dilution method; assay type: functional; conditions: 12-28, 18 h
Staphylococcus aureus [6] = test: Antibacterial activity against methicillin-resistant Staphylococcus aureus 12-33 after 18 hrs by agar dilution method; assay type: functional; conditions: 12-33, 18 h
[7] = test system: Staphylococcus epidermidis; test: Antibacterial activity against methicillin-susceptible Staphylococcus epidermidis ATCC 12228 after 18 hrs by agar dilution method; assay type: functional; conditions: ATCC 12228, 18 h
[8] = test system: Staphylococcus epidermidis; test: Antibacterial activity against methicillin-resistant Staphylococcus epidermidis 12-6 after 18 hrs by agar dilution method; assay type: functional; conditions: 12-6, 18 h
[9] = test system: Staphylococcus epidermidis; test: Antibacterial activity against methicillin-resistant Staphylococcus epidermidis 12-8 after 18 hrs by agar dilution method; assay type: functional; conditions: 12-8, 18 h
Enterococcus faecalis [10] = test: Antibacterial activity against vancomycin-susceptible Enterococcus faecalis ATCC 29212 after 18 hrs by agar dilution method; assay type: functional; conditions: ATCC 29212, 18 h
Enterococcus faecalis [11] = test: Antibacterial activity against vancomycin-resistant Enterococcus faecalis ATCC 51299 after 18 hrs by agar dilution method; assay type: functional; conditions: ATCC 51299, 18 h
Enterococcus faecalis [12] = test: Antibacterial activity against vancomycin-resistant Enterococcus faecalis 12-5 after 18 hrs by agar dilution method; assay type: functional; conditions: 12-5, 18 h
Enterococcus faecalis [13] = test: Antibacterial activity against vancomycin-resistant Enterococcus faecalis 09-9 after 18 hrs by agar dilution method; assay type: functional; conditions: 09-9, 18 h
Enterococcus faecium [14] = test: Antibacterial activity against vancomycin-resistant Enterococcus faecium ATCC 700221 after 18 hrs by agar dilution method; assay type: functional; conditions: ATCC 700221, 18 h
Enterococcus faecium [15] = test: Antibacterial activity against vancomycin-resistant Enterococcus faecium 12-1 after 18 hrs by agar dilution method; assay type: functional; conditions: 12-1, 18 h
Enterococcus faecium [16] = test: Antibacterial activity against vancomycin-resistant Enterococcus faecium 12-3 after 18 hrs by agar dilution method; assay type: functional; conditions: 12-3, 18 h
Escherichia coli = test: Antibacterial activity against beta-lactamase producing Escherichia coli ATCC 25922 after 18 hrs by agar dilution method; assay type: functional; conditions: ATCC 25922, 18 h
Klebsiella pneumoniae [17] = test: Antibacterial activity against extended spectrum beta-lactamase producing Klebsiella pneumoniae ATCC 700603 after 18 hrs by agar dilution method; assay type: functional; conditions: ATCC 700603, 18 h
Klebsiella pneumoniae [18] = test: Antibacterial activity against NDM-1 producing Klebsiella pneumoniae ATCC BAA-2146 after 18 hrs by agar dilution method; assay type: functional; conditions: ATCC BAA-2146, 18 h
Pseudomonas aeruginosa = test: Antibacterial activity against beta-lactamase producing Pseudomonas aeruginosa ATCC 27853 after 18 hrs by agar dilution method; assay type: functional; conditions: ATCC 27853, 18 h

Row | SMILES | MIC (Morganella morganii) | MIC (Proteus vulgaris) | MIC [1] | IC50 (HepG2) | IC50 (MCF7) | IC50 (K562) | MIC (Staphylococcus aureus [2]) | MIC (Staphylococcus aureus [3]) | MIC (Staphylococcus aureus [4]) | MIC (Staphylococcus aureus [5]) | MIC (Staphylococcus aureus [6]) | MIC [7] | MIC [8] | MIC [9] | MIC (Enterococcus faecalis [10]) | MIC (Enterococcus faecalis [11]) | MIC (Enterococcus faecalis [12]) | MIC (Enterococcus faecalis [13]) | MIC (Enterococcus faecium [14]) | MIC (Enterococcus faecium [15]) | further results
1 | COC(=O)c1c(OC)cc2cc3c(c(O)c2c1C)C(=O)O[C@@H]3[C@@]1(O)[C@H](O)C(OC)=CC(=O)[C@@H]1O | > 64 mg/L | > 64 mg/L | > 64 mg/L | > 100 µM | > 100 µM | > 100 µM | > 64 mg/L | > 64 mg/L | > 64 mg/L | > 64 mg/L | > 64 mg/L | > 64 mg/L | > 64 mg/L | > 64 mg/L | > 64 mg/L | > 64 mg/L | > 64 mg/L | > 64 mg/L | > 64 mg/L | > 64 mg/L | MIC (Enterococcus faecium [16]): > 64 mg/L; MIC (Escherichia coli): > 64 mg/L; MIC (Klebsiella pneumoniae [17]): > 64 mg/L; MIC (Klebsiella pneumoniae [18]): > 64 mg/L; MIC (Pseudomonas aeruginosa): > 64 mg/L
2 | COC(=O)c1c(OC)cc2cc3c(c(O)c2c1C)C(=O)[C@]1(OC)C(=O)C=C(OC)[C@@H](O)[C@]1(O)C3=O | – | – | – | 1.6 µM | 1.5 µM | 5.2 µM | – | – | – | – | – | – | – | – | – | – | – | – | – | – | –
3 | COC(=O)c1c(OC)cc2cc3c(c(O)c2c1C)C(=O)O[C@H]3[C@@]1(O)[C@H](O)C(OC)=CC(=O)[C@H]1OC | > 64 mg/L | > 64 mg/L | > 64 mg/L | > 100 µM | > 100 µM | > 100 µM | > 64 mg/L | > 64 mg/L | > 64 mg/L | > 64 mg/L | > 64 mg/L | > 64 mg/L | > 64 mg/L | > 64 mg/L | > 64 mg/L | > 64 mg/L | > 64 mg/L | > 64 mg/L | > 64 mg/L | > 64 mg/L | MIC (Enterococcus faecium [16]): > 64 mg/L; MIC (Escherichia coli): > 64 mg/L; MIC (Klebsiella pneumoniae [17]): > 64 mg/L; MIC (Klebsiella pneumoniae [18]): > 64 mg/L; MIC (Pseudomonas aeruginosa): > 64 mg/L
4 | COC(=O)c1c(OC)cc2cc3c(c(O)c2c1C)C(=O)[C@@]1(O)C(OC)=CC(=O)[C@H](OC)[C@@]1(O)C3=O | > 64 mg/L | > 64 mg/L | > 64 mg/L | 7.5 µM | 16.2 µM | 20.8 µM | > 64 mg/L | > 64 mg/L | > 64 mg/L | > 64 mg/L | > 64 mg/L | > 64 mg/L | > 64 mg/L | > 64 mg/L | > 64 mg/L | > 64 mg/L | > 64 mg/L | > 64 mg/L | > 64 mg/L | > 64 mg/L | MIC (Enterococcus faecium [16]): > 64 mg/L; MIC (Escherichia coli): > 64 mg/L; MIC (Klebsiella pneumoniae [17]): > 64 mg/L; MIC (Klebsiella pneumoniae [18]): > 64 mg/L; MIC (Pseudomonas aeruginosa): > 64 mg/L
5 | COc1cccc2c1C(=O)c1c(O)c3c(c(O)c1C2=O)C[C@@](O)(C(=O)CO)C[C@@H]3O[C@H]1C[C@H](N)[C@H](O)[C@H](C)O1 [DOXORUBICIN] | – | – | – | 5.4 µM | – | 10.9 µM | – | – | – | – | – | – | – | – | – | – | – | – | – | – | –
6 | C[C@H]1COc2c(N3CCN(C)CC3)c(F)cc3c(=O)c(C(=O)O)cn1c23.C[C@H]1COc2c(N3CCN(C)CC3)c(F)cc3c(=O)c(C(=O)O)cn1c23.O [LEVOFLOXACIN] | 0.06 mg/L | ≤ 0.03 mg/L | 0.5 mg/L | – | – | – | 0.25 mg/L | 0.25 mg/L | 0.25 mg/L | 0.25 mg/L | 128 mg/L | 0.25 mg/L | 0.5 mg/L | 8 mg/L | 0.5 mg/L | 0.5 mg/L | 0.5 mg/L | > 128 mg/L | 128 mg/L | 32 mg/L | MIC (Enterococcus faecium [16]): 64 mg/L; MIC (Escherichia coli): ≤ 0.03 mg/L; MIC (Klebsiella pneumoniae [18]): > 128 mg/L; MIC (Pseudomonas aeruginosa): 0.5 mg/L
7 | COC(=O)c1c(OC)cc2cc3c(c(O)c2c1C)C(=O)O[C@@H]3[C@@]1(O)[C@H](O)C(OC)=CC(=O)[C@@H]1OC | > 64 mg/L | > 64 mg/L | > 64 mg/L | > 100 µM | > 100 µM | > 100 µM | > 64 mg/L | > 64 mg/L | > 64 mg/L | > 64 mg/L | > 64 mg/L | > 64 mg/L | > 64 mg/L | > 64 mg/L | > 64 mg/L | > 64 mg/L | > 64 mg/L | > 64 mg/L | > 64 mg/L | > 64 mg/L | MIC (Enterococcus faecium [16]): > 64 mg/L; MIC (Escherichia coli): > 64 mg/L; MIC (Klebsiella pneumoniae [17]): > 64 mg/L; MIC (Klebsiella pneumoniae [18]): > 64 mg/L; MIC (Pseudomonas aeruginosa): > 64 mg/L
